Drawing on patent publication US20200339548A1, “PYRIMIDINE DERIVATIVES AND THEIR USE FOR THE TREATMENT OF CANCER” (Adorx Therapeutics Limited, priority 2017, published 2020), this text covers Ki and IC50 for nine compounds.

Assay [1] has as its target T1, Adenosine A3 receptor (Homo sapiens, UniProt P0DMS8).
T1 construct: expressed in transfected cells; host or cells: CHO cell membranes
T1 sequence (P0DMS8 1-318): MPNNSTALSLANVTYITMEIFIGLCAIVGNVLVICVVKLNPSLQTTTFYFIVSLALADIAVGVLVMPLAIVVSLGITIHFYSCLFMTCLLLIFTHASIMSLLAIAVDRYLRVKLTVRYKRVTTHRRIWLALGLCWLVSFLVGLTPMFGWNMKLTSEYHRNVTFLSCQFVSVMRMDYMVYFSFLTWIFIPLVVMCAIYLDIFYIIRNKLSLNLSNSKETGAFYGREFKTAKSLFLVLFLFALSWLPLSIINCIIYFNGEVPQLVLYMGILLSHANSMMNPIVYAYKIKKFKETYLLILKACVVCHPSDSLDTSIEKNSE
In words: Adenosine receptor TR-FRET binding assay, A3. To be noted: Table 9, further testing; displacement of 100 nM CA200645, CHO cell membranes; read-out: A3 Ki. The method in brief: (§1)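 Competition TR-FRET binding in CHO cell membranes expressing terbium-labelled human receptors, displacing fluorescent XAC (CA200645; 30 nM for A2b, 100 nM for A1, A2a, A3); 2 h at room temperature with saponin buffer, 1% DMSO. 665/620 nm ratio; non-specific with 10 μM XAC; Ki by Cheng–Prusoff from IC50.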

For assay [2], the target named is T2, Adenosine A1 receptor (Homo sapiens, UniProt P30542).
T2 construct: expressed in transfected cells; host or cells: CHO cell membranes
T2 sequence (P30542 1-326): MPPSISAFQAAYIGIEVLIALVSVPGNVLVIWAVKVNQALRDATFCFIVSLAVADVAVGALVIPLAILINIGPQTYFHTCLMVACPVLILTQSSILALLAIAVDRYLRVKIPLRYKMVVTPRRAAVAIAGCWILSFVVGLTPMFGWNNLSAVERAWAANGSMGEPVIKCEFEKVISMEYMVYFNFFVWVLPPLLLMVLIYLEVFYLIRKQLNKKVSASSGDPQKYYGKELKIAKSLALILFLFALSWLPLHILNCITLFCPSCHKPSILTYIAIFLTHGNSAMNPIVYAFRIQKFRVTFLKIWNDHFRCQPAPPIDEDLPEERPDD
Description: Adenosine receptor TR-FRET binding assay, A1. To be noted: Table 9, further testing; displacement of 100 nM CA200645, CHO cell membranes. The gist of the method: as §1

Assay [3] addresses T3, Adenosine A2b receptor (Homo sapiens, UniProt P29275).
T3 construct: expressed in transfected cells; host or cells: CHO cell membranes
T3 sequence (P29275 1-332): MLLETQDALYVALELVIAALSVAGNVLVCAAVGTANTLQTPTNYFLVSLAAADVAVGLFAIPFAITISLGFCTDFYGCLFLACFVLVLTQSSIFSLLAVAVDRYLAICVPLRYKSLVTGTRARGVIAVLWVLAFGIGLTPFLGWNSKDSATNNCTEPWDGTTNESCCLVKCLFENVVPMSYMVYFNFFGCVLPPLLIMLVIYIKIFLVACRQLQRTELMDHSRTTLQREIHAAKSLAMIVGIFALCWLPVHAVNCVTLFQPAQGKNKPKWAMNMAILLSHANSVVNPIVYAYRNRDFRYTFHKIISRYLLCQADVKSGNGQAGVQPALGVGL
In words: Adenosine receptor TR-FRET binding assay, A2b. To be noted: Table 9, further testing; displacement of 30 nM CA200645, CHO cell membranes. The method in brief:
as §1

Assay [4] addresses T4, Adenosine A2a receptor (Homo sapiens, UniProt P29274).
T4 construct: expressed in transfected cells; host or cells: CHO cell membranes
In words: Adenosine receptor TR-FRET binding assay, A2a. To be noted: displacement of 100 nM CA200645, CHO cell membranes. The gist of the method: as §1

The test system of assay [5] is Human PBMCs. In words: CD3/CD28 stimulated IL-2 release NECA reversal assay. The class given is cell-based. To be noted: Homo sapiens, PBMC, read-out: IL-2 release NECA reversal IC50 (nM), 1 uM NECA, 24 hours. How it is done: Blood is drawn from healthy volunteers using sodium citrate as the anticoagulant (0.3% final concentration). […] 50 μl diluted compound mix is added to the cells, to obtain final concentrations of 1 ug/ml CD28 antibody, 1 uM NECA and 0.003-10 μM adenosine receptor antagonist. Assay plates are incubated for 24 hours at 37° C. in a humidified incubator.

T4 sequence (P29274 whole entry): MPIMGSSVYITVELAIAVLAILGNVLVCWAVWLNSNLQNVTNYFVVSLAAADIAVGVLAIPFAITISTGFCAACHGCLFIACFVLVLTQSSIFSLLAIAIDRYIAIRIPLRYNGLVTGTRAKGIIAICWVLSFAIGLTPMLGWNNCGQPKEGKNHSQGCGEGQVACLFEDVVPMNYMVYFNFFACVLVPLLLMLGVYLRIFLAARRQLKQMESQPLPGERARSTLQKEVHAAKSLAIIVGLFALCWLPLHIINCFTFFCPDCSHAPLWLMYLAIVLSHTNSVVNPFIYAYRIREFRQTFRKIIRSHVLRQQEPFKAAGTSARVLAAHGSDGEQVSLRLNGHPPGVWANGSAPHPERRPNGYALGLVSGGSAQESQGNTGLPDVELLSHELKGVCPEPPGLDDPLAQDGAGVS

As to `Cc1cccnc1CNC(=O)c1cnc(-c2cccc(C#N)c2)nc1N` [Example 12, 4-Amino-2-(3-cyanophenyl)-N-[(3-methyl-2-pyridyl)methyl]pyrimidine-5-carboxamide], the Ki was found to be 1.03 µM in assay [1]; 0.017 µM in assay [2]; 1.56 µM in assay [3]; 0.027 µM in assay [4] (Table 8, Cheng and Prusoff); 0.027 µM in assay [4] (Table 9, further testing). In assay [5], the IC50 was found to be 1200 nM.

On to `COc1ccccc1CNC(=O)c1cnc(-c2ccco2)nc1N` [Example 5.20, 4-Amino-2-(2-furyl)-N-[(2-methoxyphenyl)methyl]pyrimidine-5-carboxamide], for which the Ki came out at 0.757 µM in assay [1]; 0.426 µM in assay [2]; 1.19 µM in assay [3]; 0.0011 µM in assay [4] (Table 8, Cheng and Prusoff); 0.00095 µM in assay [4] (Table 9, further testing). Further, in assay [5], the IC50 came to 122 nM.

For the compound `Nc1nc(-c2ccco2)ncc1C(=O)NCc1cccc(Cl)c1` [Example 5.12, 4-Amino-N-[(3-chlorophenyl)methyl]-2-(2-furyl)pyrimidine-5-carboxamide], the Ki came out at 1.16 µM in assay [1]; 0.962 µM in assay [2]; 1.57 µM in assay [3]; 0.0041 µM in assay [4] (Table 8, Cheng and Prusoff); 0.0039 µM in assay [4] (Table 9, further testing). Further, in assay [5], the IC50 was found to be 345 nM.

`CC(O)CCNC(=O)c1c(N)nc(-c2cccc(C#N)c2)nc1OCCF` (stereo not drawn) [Example 24.6, 4-Amino-2-(3-cyanophenyl)-6-(2-fluoroethoxy)-N-(3-hydroxybutyl)pyrimidine-5-carboxamide]: the Ki in assay [1] was determined as 2.22 µM; in assay [2], 0.629 µM; in assay [3], 1.07 µM; in assay [4] (Table 9, further testing), 0.007 µM. The IC50 in assay [5] amounted to 207 nM.

With `Cc1cccnc1CNC(=O)c1nnc(-c2cccc(F)c2)nc1N` [Example 7, 5-Amino-3-(3-fluorophenyl)-N-[(3-methyl-2-pyridyl)methyl]-1,2,4-triazine-6-carboxamide], the Ki in assay [1] was determined as 0.013 µM; in assay [2], 0.042 µM; in assay [3] it was 0.383 µM; in assay [4] (Table 8, Cheng and Prusoff), 0.011 µM; in assay [4] (Table 9, further testing), 0.012 µM. Further, the IC50 in assay [5] stood at 830 nM.

Turning to `Cc1cccnc1CNC(=O)c1nnc(-c2cccc(C#N)c2)nc1N` [Example 17, 5-Amino-3-(3-cyanophenyl)-N-[(3-methyl-2-pyridyl)methyl]-1,2,4-triazine-6-carboxamide], the Ki amounted to 0.442 µM in assay [1]; 0.767 µM in assay [2]; 0.405 µM in assay [3]; 0.0038 µM in assay [4] (Table 8, Cheng and Prusoff); 0.0024 µM in assay [4] (Table 9, further testing). Moreover, the IC50 in assay [5] worked out at 309 nM.

As to `Nc1nc(-c2ccco2)ncc1C(=O)NCc1cccc2cccnc12` [Example 5.25, 4-Amino-2-(2-furyl)-N-(8-quinolylmethyl) pyrimidine-5-carboxamide], the Ki in assay [1] came to 0.506 µM; in assay [2] it was 0.706 µM; in assay [3], 1.47 µM; in assay [4] (Table 8, Cheng and Prusoff), 0.0012 µM; in assay [4] (Table 9, further testing), 0.00083 µM. Also, in assay [5], the IC50 stood at 15 nM.

As to `Cc1cccnc1CNC(=O)c1c(N)nc(-c2ccco2)nc1OCCF` [Example 20.7, 4-Amino-6-(2-fluoroethoxy)-2-(2-furyl)-N-[(3-methyl-2-pyridyl)methyl]pyrimidine-5-carboxamide], the Ki in assay [1] is 0.015 µM; in assay [2], 0.0066 µM; in assay [3] it was 0.029 µM; in assay [4] (Table 9, further testing), 0.00011 µM. In assay [5], the IC50 came out at 14 nM.

On to `Cc1cccnc1CNC(=O)c1c(N)nc(-c2ccco2)nc1OCC(C)(C)C` [Example 20.10, 4-Amino-6-(2,2-dimethylpropoxy)-2-(2-furyl)-N-[(3-methyl-2-pyridyl)methyl]pyrimidine-5-carboxamide], for which the Ki was determined as 0.011 µM in assay [1]; 0.0049 µM in assay [2]; 1.22 µM in assay [3]; 0.0018 µM in assay [4] (Table 9, further testing). For the same compound, in assay [5], the IC50 was 62 nM.
